Test results from patent publication US20220048944A1, “FUNC[…] AS ANTIVIRAL AGENTS” (Enanta Pharmaceuticals, Inc., priority 2020, published 2022).

Biological target: SARS-CoV-2 3CL-protease (Severe acute respiratory syndrome coronavirus 2, UniProt P0DTD1)
Assay: SARS-CoV-2 3C-like (3CL) protease fluorescence assay (FRET)
Format: biochemical
Conditions: recombinant SARS-CoV-2 3CL-protease 10 nM, TAMRA-[…]-Dabcyl-OH substrate, 30 min preincubation at RT, run in duplicate
Procedure: SARS-CoV-2 3C-like (3CL) protease fluorescence assay (FRET): Recombinant SARS-CoV-2 3CL-protease was expressed and purified. […] Black, low volume, round-bottom, 384 well microplates were used. In a typical assay, 0.85 μL of test compound was dissolved in DMSO then incubated with SARS-CoV-2 3CL-protease (10 nM) in 10 μL assay buffer (50 mM HEPES [pH 7.5], 1 mM DTT, 0.01% BSA, 0.01% Triton-X 100) for 30 min at RT. Next, 10 μL of 3CL-protease substrate (40 μM) in assay buffer was added and the assays were monitored continuously for 1 h in an Envision multimode plate reader operating in fluorescence kinetics mode with excitation at 540 nm and emission at 580 nm at RT. No compound (DMSO only) and no enzyme controls were routinely included in each plate. All experiments were run in duplicate.
Data were fitted to normalized activity (variable slope) versus concentration fit in GraphPad Prism 7 to determine IC50.

Compound | IC50
COc1cccc2[nH]c(C(=O)N[C@H](C(=O)N[C@H](C#N)C[C@@H]3CCNC3=O)C3CCCCC3)cc12 [Example 6, N—((S)-2-(((S)-1-cyano-2-((S)-2-oxopyrrolidin-3-yl)ethyl)amino)-1-cyclohexyl-2-oxoethyl)-4-methoxy-1H-indole-2-carboxamide] | > 1000 nM
CC(C)C[C@H](NC(=O)c1cc2ccccc2o1)C(=O)N[C@H](C#N)C[C@@H]1CCNC1=O [Example 13, N—((S)-1-(((S)-1-cyano-2-((S)-2-oxopyrrolidin-3-yl)ethyl)amino)-4-methyl-1-oxopentan-2-yl)benzofuran-2-carboxamide] | > 1000 nM
COc1cccc2[nH]c(C(=O)N[C@H](C(=O)N[C@H](C#N)C[C@@H]3CCNC3=O)c3ccccc3)cc12 [Example 5, N—((S)-2-(((S)-1-cyano-2-((S)-2-oxopyrrolidin-3-yl)ethyl)amino)-2-oxo-1-phenylethyl)-4-methoxy-1H-indole-2-carboxamide] | > 1000 nM
COc1cccc2[nH]c(C(=O)N[C@@H](CC(F)(F)F)C(=O)N[C@H](C#N)C[C@@H]3CCNC3=O)cc12 [Example 25, N—((S)-1-(((S)-1-cyano-2-((S)-2-oxopyrrolidin-3-yl)ethyl)amino)-4,4,4-trifluoro-1-oxobutan-2-yl)-4-methoxy-1H-indole-2-carboxamide] | 100 to 1000 nM
COc1cccc2[nH]c(C(=O)N[C@@H](CSC)C(=O)N[C@H](C#N)C[C@@H]3CCNC3=O)cc12 [Example 24, N—((R)-1-(((S)-1-cyano-2-((S)-2-oxopyrrolidin-3-yl)ethyl)amino)-3-(methylthio)-1-oxopropan-2-yl)-4-methoxy-1H-indole-2-carboxamide] | 100 to 1000 nM
COc1cccc2[nH]c(C(=O)N[C@H](C(=O)N[C@H](C#N)C[C@@H]3CCNC3=O)C(C)(C)C)cc12 [Example 19, N—((S)-1-(((S)-1-cyano-2-((S)-2-oxopyrrolidin-3-yl)ethyl)amino)-3,3-dimethyl-1-oxobutan-2-yl)-4-methoxy-1H-indole-2-carboxamide] | > 1000 nM
COc1cccc2[nH]c(C(=O)N[C@@H](CCSC)C(=O)N[C@H](C#N)C[C@@H]3CCNC3=O)cc12 [Example 12, N—((S)-1-(((S)-1-cyano-2-((S)-2-oxopyrrolidin-3-yl)ethyl)amino)-4-(methylthio)-1-oxobutan-2-yl)-4-methoxy-1H-indole-2-carboxamide] | 100 to 1000 nM
COc1cccc2[nH]c(C(=O)N[C@@H](CC(C)C)C(=O)N[C@H](C#N)C[C@@H]3CCCNC3=O)cc12 [Example 16, N—((S)-1-(((S)-1-cyano-2-((S)-2-oxopiperidin-3-yl)ethyl)amino)-4-methyl-1-oxopentan-2-yl)-4-methoxy-1H-indole-2-carboxamide] | < 100 nM
COc1cccc2[nH]c(C(=O)N[C@@H](Cc3ccccc3)C(=O)N[C@H](C#N)C[C@@H]3CCCNC3=O)cc12 [Example 18, N—((S)-1-(((S)-1-cyano-2-((S)-2-oxopiperidin-3-yl)ethyl)amino)-1-oxo-3-phenylpropan-2-yl)-4-methoxy-1_H-indole-2-carboxamide] | 100 to 1000 nM
COc1cccc2[nH]c(C(=O)N[C@@H](CC3CCCC3)C(=O)N[C@H](C#N)C[C@@H]3CCNC3=O)cc12 [Example 10, N—((S)-1-(((S)-1-cyano-2-((S)-2-oxopyrrolidin-3-yl)ethyl)amino)-3-cyclopentyl-1-oxopropan-2-yl)-4-methoxy-1H-indole-2-carboxamide] | 100 to 1000 nM
CC(C)C[C@H](NC(=O)c1cc2ccccc2[nH]1)C(=O)N[C@H](C#N)C[C@@H]1CCNC1=O [Example 2, N—((S)-1-(((S)-1-cyano-2-((S)-2-oxopyrrolidin-3-yl)ethyl)amino)-4-methyl-1-oxopentan-2-yl)-1H-indole-2-carboxamide] | 100 to 1000 nM
N#C[C@H](C[C@@H]1CCCNC1=O)NC(=O)[C@H](CC1CCCCC1)NC(=O)c1cc2ccccc2o1 [Example 15, N—((S)-1-(((S)-1-cyano-2-((S)-2-oxopiperidin-3-yl)ethyl)amino)-3-cyclohexyl-1-oxopropan-2-yl)benzofuran-2-carboxamide] | 100 to 1000 nM
COc1cccc2[nH]c(C(=O)N[C@@H](CCCc3ccccc3)C(=O)N[C@H](C#N)C[C@@H]3CCNC3=O)cc12 [Example 11, N—((S)-1-(((S)-1-cyano-2-((S)-2-oxopyrrolidin-3-yl)ethyl)amino)-1-oxo-5-phenylpentan-2-yl)-4-methoxy-1H-indole-2-carboxamide] | > 1000 nM
COc1cccc2[nH]c(C(=O)N[C@@H](Cc3ccccc3)C(=O)N[C@H](C#N)C[C@@H]3CCNC3=O)cc12 [Example 3, N—((S)-1-(((S)-1-cyano-2-((S)-2-oxopyrrolidin-3-yl)ethyl)amino)-1-oxo-3-phenylpropan-2-yl)-4-methoxy-1H-indole-2-carboxamide] | 100 to 1000 nM
COc1cccc2[nH]c(C(=O)N[C@H](C(=O)N[C@H](C#N)C[C@@H]3CCNC3=O)C(C)C)cc12 [Example 7, N—((S)-1-(((S)-1-cyano-2-((S)-2-oxopyrrolidin-3-yl)ethyl)amino)-3-methyl-1-oxobutan-2-yl)-4-methoxy-1H-indole-2-carboxamide] | > 1000 nM
COc1cccc2[nH]c(C(=O)N[C@@H](CC3CCCCC3)C(=O)N[C@H](C#N)C[C@@H]3CCCNC3=O)cc12 [Example 14, N—((S)-1-(((S)-1-cyano-2-((S)-2-oxopiperidin-3-yl)ethyl)amino)-3-cyclohexyl-1-oxopropan-2-yl)-4-methoxy-1H-indole-2-carboxamide] | < 100 nM
N#C[C@H](C[C@@H]1CCNC1=O)NC(=O)[C@H](CC1CCCCC1)NC(=O)c1cc2ccccc2o1 [Example 22, N—((S)-1-(((S)-1-cyano-2-((S)-2-oxopyrrolidin-3-yl)ethyl)amino)-3-cyclohexyl-1-oxopropan-2-yl)benzofuran-2-carboxamide] | > 1000 nM
COc1cccc2[nH]c(C(=O)N[C@@H](CCc3ccccc3)C(=O)N[C@H](C#N)C[C@@H]3CCNC3=O)cc12 [Example 8, N—((S)-1-(((S)-1-cyano-2-((S)-2-oxopyrrolidin-3-yl)ethyl)amino)-1-oxo-4-phenylbutan-2-yl)-4-methoxy-1H-indole-2-carboxamide] | 100 to 1000 nM
